# Data: patent publication US6965033B2, “Bisamidate phosphonate prodrugs” (Metabasis Therapeutics, Inc., priority 1999, dated 2005)
# Read-outs that look alike come from different tables or passages of the source.
# Experiments:
# rat hepatocytes = assay: Inhibition of Gluconeogenesis in Rat Hepatocytes; assay type: cell-based; details: isolated rat hepatocytes, 10 mM lactate, 1 mM pyruvate, 1 hour, read-out: IC50 Glucose Production
# Procedure: Hepatocytes (75 mg wet weight/ml) were incubated in 1 ml Krebs-bicarbonate buffer containing 10 mM Lactate, 1 mM pyruvate, 1 mg/ml BSA, and test compound concentrations from 1 to 500 μM. […] After 1 hour, an aliquot (0.25 ml) was removed, transferred to an Eppendorf tube and centrifuged. 50 μl of supernatant was then assayed for glucose content using a Sigma Glucose Oxidase kit as per the manufacturer's instructions.
# rat liver FBPase = target: T1, rat liver FBPase (Rattus norvegicus, UniProt P19112); assay: Inhibition of Rat Liver FBPase; assay type: biochemical; details: read-out: IC50 (rlFBPase)
# T1 construct: made in house; host or cells: E. coli BL21
# T1 sequence (P19112 2-363 limits assumed): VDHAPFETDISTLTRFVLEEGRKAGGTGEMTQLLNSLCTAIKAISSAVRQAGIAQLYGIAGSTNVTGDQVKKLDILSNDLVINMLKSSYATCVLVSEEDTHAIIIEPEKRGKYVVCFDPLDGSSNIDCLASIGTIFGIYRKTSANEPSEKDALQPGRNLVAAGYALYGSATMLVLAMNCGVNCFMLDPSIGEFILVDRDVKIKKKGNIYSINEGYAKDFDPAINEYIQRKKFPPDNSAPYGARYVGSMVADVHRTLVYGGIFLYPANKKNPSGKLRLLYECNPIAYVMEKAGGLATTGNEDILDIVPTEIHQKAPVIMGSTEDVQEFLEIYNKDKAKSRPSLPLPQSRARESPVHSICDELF
# Procedure: E. coli strain BL21 transformed with a human liver FBPase-encoding plasmid was obtained from Dr. M. R. El-Maghrabi at the State University of New York at Stony Brook. The enzyme was typically purified from 10 liters of recombinant E. coli culture as described (M. Gidh-Jain et al., 1994, The Journal of Biological Chemistry 269, pp 27732-27738). Enzymatic activity was measured spectrophotometrically in reactions that coupled the formation of product (fructose 6-phosphate) to the reduction of dimethylthiazoldiphenyltetrazolium bromide (MTT) via NADP^+ and phenazine methosulfate (PMS), using phosphoglucose isomerase and glucose 6-phosphate dehydrogenase as the coupling enzymes. Reaction mixtures (200 μl) were made up in 96-well microtitre plates, and consisted of 50 mM Tris-HCl, pH 7.4, 100 mM KCl, 5 mM EGTA, 2 mM MgCl2, 0.2 mM NADP, 1 mg/ml BSA, 1 mM MTT, 0.6 mM PMS, 1 unit/ml phosphoglucose isomerase, 2 units/ml glucose 6-phosphate dehydrogenase, and 0.150 mM substrate (fructose 1,6-bisphosphate). Inhibitor concentrations were varied from 0.01 μM to 10 μM. Reactions were started by the addition of 0.002 units of pure hlFBPase, and were monitored for 7 minutes at 590 nm in a Molecular Devices Plate Reader (37° C.).
# E. coli strain BL21 transformed with a rat liver FBPase-encoding plasmid was obtained from Dr. M. R. El-Maghrabi at the State University of New York at Stony Brook. Recombinant FBPase was purified as described (El-Maghrabi, M. R., and Pilkis, S. J. (1991) BioChem. Biophys. Res. Commun. 176, 137-144) The enzyme assay was identical to that described above for human liver FBPase.
# human liver FBPase = target: T2, human liver FBPase (Homo sapiens, UniProt P09467); assay: Inhibition of Human Liver FBPase; assay type: biochemical; details: read-out: IC50 (hlFBPase)
# T2 construct: made in house; host or cells: E. coli BL21
# T2 sequence (P09467 2-338 limits assumed): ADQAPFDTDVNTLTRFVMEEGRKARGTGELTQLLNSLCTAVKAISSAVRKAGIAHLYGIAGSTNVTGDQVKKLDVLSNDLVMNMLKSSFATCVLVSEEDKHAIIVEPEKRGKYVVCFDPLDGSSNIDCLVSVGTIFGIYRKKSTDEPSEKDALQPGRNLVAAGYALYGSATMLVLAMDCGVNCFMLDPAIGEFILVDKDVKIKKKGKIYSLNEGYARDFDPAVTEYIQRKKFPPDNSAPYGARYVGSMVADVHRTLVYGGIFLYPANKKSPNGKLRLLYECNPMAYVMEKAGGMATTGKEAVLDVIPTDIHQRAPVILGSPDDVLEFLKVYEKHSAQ
# Procedure: […] […] Enzymatic activity was measured spectrophotometrically in reactions that coupled the formation of product (fructose 6-phosphate) to the reduction of dimethylthiazoldiphenyltetrazolium bromide (MTT) via NADP^+ and phenazine methosulfate (PMS), using phosphoglucose isomerase and glucose 6-phosphate dehydrogenase as the coupling enzymes. […] Inhibitor concentrations were varied from 0.01 μM to 10 μM. Reactions were started by the addition of 0.002 units of pure hlFBPase, and were monitored for 7 minutes at 590 nm in a Molecular Devices Plate Reader (37° C.).
# [1] = tested on: Zucker Diabetic Fatty (ZDF rat); assay: Acute Oral Efficacy in the ZDF Rat; assay type: in vivo; details: for Blood Glucose, T6h: 6 h after 60 mg/kg oral; for Blood Glucose, % Change: baseline to 6 h, 60 mg/kg oral; for Blood Glucose, Tbaseline: baseline, 60 mg/kg oral group
# Procedure: Methods: ZDF rats were purchased from Genetics Inc (Indianapolis, Ind.) at 8 weeks of age. Animals were maintained under standard vivarium conditions and provided with Purina 5008 chow and water ad libitum. At 10-12 weeks of age, rats with blood glucose levels>500 mg/dl were selected and dosed orally either with vehicle (PEG 400), or prodrug (60 mg/kg). Blood glucose levels were monitored at regular intervals for 6 hours following dosing. Blood samples were taken from tail vein nicks and analyzed by means of a HemoCue glucose analyzer (Hemocue, Mission Viejo, Calif.). Statistical analysis was performed using the Student's t test. Means±standard error of the means are shown.
# [2] = tested on: Human Liver Phosphoramidase; assay: Structure Activity Relationship of Human Liver Phosphoramidase (human liver homogenate); assay type: in vitro ADME; details: pH 7.4
# Procedure: Human liver, purchased from the Anatomic Gift Foundation (Laurel, Md.), was homogenized in Krebs-bicarbonate buffer and clarified by a slow-speed centrifugation. Prodrug metabolism was evaluated in reaction mixtures containing human liver homogenate (4 mgs protein), 50 mM Tris-HCl, pH 7.4, 10 mM MgCl2, and 10 mM dithiothreitol. At various time intervals over the course of 2 hours, aliquots were removed from the reaction mixtures and deproteinated by addition of methanol to 60%. Following clarification by centrifugation, metabolites were analyzed by reverse phase HPLC with use of a Beckman Ultrasphere ODS column (4.6×150 mm) equipped with an Alltech All-Guard column. The column was equilibrated with 20 mM potassium phosphate, pH 6.2 and eluted with a linear gradient of 0-60% acetonitrile over 20 minutes at a flow rate of 1.5 mL/min and at a temperature of 40° C. UV absorbance was monitored at 300 nm. Most of the prodrugs evaluated were metabolized via a non-rate limiting, esterase-catalyzed step to their monophosphoramidate form within 5 minutes of incubation. The rate of phosphonic acid appearance was therefore essentially a reflection of the rate of the final […] cleavage step. Results for representative prodrugs for which the esterase-catalyzed step was non-rate limiting are shown below: […]
structure (smiles),measurement,setting,value
"Cc1nc(-c2ccc(P(=O)(O)O)o2)c(CC(C)C)s1 [Compound 3.2, 2-Methyl-5-isobutyl-4-[2-(5-phosphono)furanyl]thiazole]",IC50,rat hepatocytes; Hepatocyte,26 µM
same,IC50,rat liver FBPase,2.5 µM
"CCCc1oc(N)nc1-c1ccc(P(=O)(O)O)o1 [Compound 10.2, 2-Amino-5-propyl-4-[2-(5-phosphono)furanyl]oxazole]",IC50,rat hepatocytes; Hepatocyte,16 µM
same,IC50,rat liver FBPase,2.5 µM
"CCCc1cnc(N)nc1-c1ccc(P(=O)(O)O)o1 [Compound 16.1, 2-amino-5-propyl-4-[2-(5-phosphono)furanyl]pyrimidine]",IC50,rat hepatocytes; Hepatocyte,10 µM
same,melting point,,258 to 259 °C
same,IC50,rat liver FBPase,1.8 µM
same,IC50,human liver FBPase,0.06 µM
"CC(C)Cc1sc(N)nc1-c1ccc(P(=O)(N[C@@H](C)C(=O)OCc2ccccc2)N[C@@H](C)C(=O)OCc2ccccc2)o1 [Compound 50.2, 2-Amino-5-isobutyl-4-[2-(5-N,N-bis(L-alanine acid dibenzyl ester)phosphonoamido)furanyl]thiazole]",IC50,rat hepatocytes,2.1 µM
same,"Blood Glucose, T6h",[1],415 ± 15 mg/dL
same,"Blood Glucose, % Change",[1],−30%
same,"Blood Glucose, Tbaseline",[1],591 ± 35 mg/dL
CCOC(=O)CNP(=O)(NCC(=O)OCC)c1ccc(-c2nc(N)sc2CC(C)C)o1 [Compound 50.8],"Phosphoramidase Activity (Rate of 3.1 or 3.58 production, nmoles/mn/mg liver protein)",[2],0.019 nmoles/mn/mg liver protein
CCOC(=O)C(C)(C)NP(=O)(NC(C)(C)C(=O)OCC)c1ccc(-c2nc(N)sc2CC(C)C)o1 [Compound 50.9],IC50,rat hepatocytes,2.2 µM
same,"Blood Glucose, T6h",[1],410 ± 18 mg/dL
same,"Blood Glucose, % Change",[1],−32%
same,"Blood Glucose, Tbaseline",[1],602 ± 26 mg/dL
"CCOC(=O)CN(C)P(=O)(c1ccc(-c2nc(N)sc2CC(C)C)o1)N(C)CC(=O)OCC [Compound 50.10, 2-Amino-5-isobutyl-4-{2-[5-(N,N′-bis(ethoxycarbonylmethyl)-N,N′-dimethylphosphonamido)]furanyl}thiazole]","Phosphoramidase Activity (Rate of 3.1 or 3.58 production, nmoles/mn/mg liver protein)",[2],0.005 nmoles/mn/mg liver protein
"COC(=O)[C@H](CC(C)C)NP(=O)(N[C@@H](CC(C)C)C(=O)OC)c1ccc(-c2nc(N)sc2CC(C)C)o1 [Compound 50.12, 2-Amino-5-isobutyl-4-{2-[5-(N,N′-bis((S)-1-methoxycarbonyl-3-methyl)butyl)phosphonamido]furanyl}thiazole]","Phosphoramidase Activity (Rate of 3.1 or 3.58 production, nmoles/mn/mg liver protein)",[2],0.022 nmoles/mn/mg liver protein
"CCOC(=O)[C@H](Cc1ccccc1)NP(=O)(N[C@@H](Cc1ccccc1)C(=O)OCC)c1ccc(-c2nc(N)sc2CC(C)C)o1 [Compound 50.19, 2-Amino-5-isobutyl-4-{2-[5-(N,N′-bis((S)-1-ethoxycarbonyl-2-phenyl)ethyl)phosphonamido]furanyl}thiazole]","Phosphoramidase Activity (Rate of 3.1 or 3.58 production, nmoles/mn/mg liver protein)",[2],0.029 nmoles/mn/mg liver protein
"CCCSc1sc(N)nc1-c1ccc(P(=O)(NC(C)C(=O)OC(C)C)NC(C)C(=O)OC(C)C)o1 (stereo not drawn) [Compound 50.20, 2-Amino-5-propylthio-4-{2-[5-(N,N′-(1-methyl-ethoxycarbonyl)ethyl)phosphonamido]furanyl}thiazole]","Phosphoramidase Activity (Rate of 3.1 or 3.58 production, nmoles/mn/mg liver protein)",[2],0.085 nmoles/mn/mg liver protein
"CCCSc1sc(N)nc1-c1ccc(P(=O)(N[C@@H](COC(C)(C)C)C(=O)OC)N[C@@H](COC(C)(C)C)C(=O)OC)o1 [Compound 52.8, 2-Amino-5-propylthio-4-{2-[5-(N,N′-bis(S)-1-methoxycarbonyl-2-(t-butoxy)ethyl)phosphonamido]furanyl}thiazole]","Phosphoramidase Activity (Rate of 3.1 or 3.58 production, nmoles/mn/mg liver protein)",[2],0.025 nmoles/mn/mg liver protein
"CCCSc1sc(N)nc1-c1ccc(P(=O)(NC2(C(=O)OCC)CCCC2)NC2(C(=O)OCC)CCCC2)o1 [Compound 52.12, 2-Amino-propylthio-4-[2-{5-(N,N′-bis(1-ethoxycarbonyl)cyclopentyl)phosphonamido}furanyl]thiazole]","Phosphoramidase Activity (Rate of 3.1 or 3.58 production, nmoles/mn/mg liver protein)",[2],0.032 nmoles/mn/mg liver protein
CCCSc1sc(N)nc1-c1ccc(P(=O)(N[C@@H](CCC)C(=O)OCC)N[C@@H](CCC)C(=O)OCC)o1 [Compound 52.16],"Phosphoramidase Activity (Rate of 3.1 or 3.58 production, nmoles/mn/mg liver protein)",[2],0.033 nmoles/mn/mg liver protein
